Measured values taken from patent US9932627B2, “Method for determination of the length of the G-tail sequence and kit for the method” (HIROSHIMA UNIVERSITY, priority 2005, dated 2018).

Tests used:
[1] = system: 90p normal mammary epithelial cell; experiment: G tail length measurement by G tail HPA on nondenatured genomic DNA of treated cells; format: cell-based; details: treated with telomestatin (5 μm) for 48 hours, nondenatured DNA 5 μg, control C = 98
Procedure: (§1) The hydrolysis of the AE in an unhybridized probe was performed by charging 300 μL of a hydrolysis buffer (0.6 mol/L tetrasodium borate buffer containing 50 mL/L of Triton X-100, pH 8.5) into each reaction tube, stirring the mixture vigorously with a Vortex mixer, and incubating the mixture at 60° C. for 10 minutes. The AE in the hybridized probe was not hydrolyzed under the above-described condition. These tubes were cooled on ice for 1 minute or more, and the chemiluminescence in each tube was measured with a luminometer (trade name: Leader 1, manufactured by Gene Probe Inc.) for 2 seconds.
(§2) For the confirmation of nondenatured genomic DNA dose response by the measuring method according to the invention, SiHa cancer cell line-derived nondenatured genomic DNA samples in various amounts (1 μg, 3 μg, 5 μg, 10 μg and 20 μg) and the AE-labeled G tail HPA probe in an amount of 3×10^6 rlu were hybridized with each other. Specifically for detection of the telomere 3′-tail (G tail) in genomic DNA, the total amount of the DNA solution in a Falcon 352053 tube (trade name) was adjusted to 100 μL with sterile water or a TE buffer (10 mM Tris/HCl, 1 mM EDTA, pH 8.0). The AE-labeled G tail HPA probe in an amount of 3×10^6 rlu dissolved in 100-μL of the hybridization buffer was added to the DNA solution, and the mixture was stirred thoroughly with a Vortex mixer and incubated at 60° C. for 20 minutes. The hydrolysis of the AE in unhybridized probe and the detection of the chemiluminescence were performed under a condition similar to that in <1-2>.
(§3) In the present invention, the nondenatured genomic DNA may not be isolated for use, but the nondenatured genomic DNA used in the confirmation test <4-1> was previously isolated in the following manner: The nondenatured genomic DNA used for G tail length measurement was isolated from each cell line by using the phenol-chloroform extraction method. Specifically, cells were centrifuged in an Eppendorf-micro centrifuge tube at 6,000 rpm and 4° C. for 5 minutes, to give a pellet in the microtube. The pellet was washed once with PBS(−) and resuspended in an extraction buffer containing 10 mM Tris buffer (pH 7.6), 150 mM NaCl and NP-40, to a final concentration of 0.5%. After proteinase K digestion, phenol-chloroform extraction was performed twice. The genomic DNA was precipitated with ethanol, treated with RNase A, and then, dissolved in a TE buffer. […]

HeLa cancer cell [2] = experiment: as above; format: cell-based; details: treated with telomestatin (5 μm) for 48 hours, nondenatured DNA 5 μg, control C = 126
Procedure: as §1, §2, §3

[3] = system: MRC-5-hTERT normal fibroblast; experiment: as above; format: cell-based; details: treated with telomestatin (5 μm) for 48 hours, nondenatured DNA 5 μg, control C = 96
Procedure: as §1, §2, §3

MCF-7 cancer cell [4] = experiment: as above; format: cell-based; details: treated with telomestatin (5 μm) for 48 hours, nondenatured DNA 5 μg, control C = 212
Procedure: as §1, §2, §3

SiHa cancer cell [5] = experiment: as above; format: cell-based, human; details: treated with telomestatin (5 μm) for 48 hours, nondenatured DNA 5 μg, control C = 220
Procedure: as §1
For the confirmation of nondenatured genomic DNA dose response by the measuring method according to the invention, SiHa cancer cell line-derived nondenatured genomic DNA samples in various amounts (1 μg, 3 μg, 5 μg, 10 μg and 20 μg) and the AE-labeled G tail HPA probe in an amount of 3×10^6 rlu were hybridized with each other. Specifically for detection of the telomere 3′-tail (G tail) in genomic DNA, the total amount of the DNA solution in a Falcon 352053 tube (trade name) was adjusted to 100 μL with sterile water or a TE buffer (10 mM Tris/HCl, 1 mM EDTA, pH 8.0). […]

[6] = system: 90p normal mammary epithelial cell; experiment: Entire telomere length by telomere HPA on denatured DNA (JP 2001-95586, Comparative Example); format: cell-based; details: treated with telomestatin (5 μm) for 48 hours, denatured DNA 0.5 μg, control C = 3500
Source text: (§4) The dominant negative allelic gene (TRF2^ΔBΔM) was infected to various cells (HeLa cancer cell, SiHa cancer cell, MCF-7 cancer cell, MRC-5-hTERT normal fibroblast, and 90p normal mammary epithelial cell) according to a method similar to that in <9-3>; The nondenatured DNA was isolated from each cell (HeLa cancer cell, SiHa cancer cell, MCF-7 cancer cell, MRC-5-hTERT normal fibroblast, and 90p normal mammary epithelial cell) according to a method similar to that in <4-2>; The nondenatured DNA (5 μg) was used in the G tail measuring method according to the present invention for measurement of the G tail length; and, as a Comparative Example, the measuring method described in Japanese Unexamined Patent Publication No. 2001-95586 was applied to each denatured DNA (0.5 μg) for measurement of the entire telomere length. ExoI treatment was performed similarly to the method described in <4-3> and culture of the cells used, similarly to the method described in <9-2>.
(§5) FIG. 11a is a graph showing the results of measuring G tail by the measuring method according to the invention. FIG. 11b is a graph showing the results of measuring the total telomere length by the measuring method described in Japanese Unexamined Patent Publication No. 2001-95586 as a Comparative Example. In FIG. 11a, “C” represents a control; “T” represents a cell treated with a G tail-shortening medicine telomestatin (5 μm) for 48 hours; represents a ExoI-treated cell; and − represents an untreated cell. […] In FIG. 11b, “C” represents a control; and “T” represents a cell previously treated with a G tail-shortening medicine telomestatin (5 μm) for 48 hours.
(§6) Thus apparently in the measuring method described in Patent Document 1 (Japanese Unexamined Patent Publication No. 2001-95586), the G tail length gives signal intensity only at a noise level within the range of the operation and measurement error, prohibiting G tail measurement. Then, the values on the ordinate in FIG. 11a were converted to average G tail lengths by using the calibration curve shown in FIG. 2 and the values on the ordinate in FIG. 11b to the entire telomere lengths, to give the following results shown in Table 4.

HeLa cancer cell [7] = experiment: as above; format: cell-based; details: treated with telomestatin (5 μm) for 48 hours, denatured DNA 0.5 μg, control C = 4700
Source text: as §4, §5, §6

[8] = system: MRC-5-hTERT normal fibroblast; experiment: as above; format: cell-based; details: treated with telomestatin (5 μm) for 48 hours, denatured DNA 0.5 μg, control C = 6800
Source text: as §4, §5, §6

MCF-7 cancer cell [9] = experiment: as above; format: cell-based; details: treated with telomestatin (5 μm) for 48 hours, denatured DNA 0.5 μg, control C = 4000
Source text: as §4, §5, §6

SiHa cancer cell [10] = experiment: as above; format: cell-based, human; details: treated with telomestatin (5 μm) for 48 hours, denatured DNA 0.5 μg, control C = 4500
Source text: as §4
FIG. 11a is a graph showing the results of measuring G tail by the measuring method according to the invention. FIG. 11b is a graph showing the results of measuring the total telomere length by the measuring method described in Japanese Unexamined Patent Publication No. 2001-95586 as a Comparative Example. […]

## Cc1oc2nc1-c1nc(co1)-c1nc(co1)-c1nc(co1)-c1nc(co1)-c1nc(co1)C1=NC(CS1)c1nc-2c(C)o1 (stereo not shown) [telomestatin]
[1]
  Average G tail length (nt): 96 nt
HeLa cancer cell [2]
  Average G tail length (nt): 89 nt
[3]
  Average G tail length (nt): 96.5 nt
MCF-7 cancer cell [4]
  Average G tail length (nt): 162 nt
SiHa cancer cell [5]
  Average G tail length (nt): 121 nt
[6]
  Entire telomere length (nt): 3450 nt
HeLa cancer cell [7]
  Entire telomere length (nt): 4600 nt
[8]
  Entire telomere length (nt): 6750 nt
MCF-7 cancer cell [9]
  Entire telomere length (nt): 3900 nt
SiHa cancer cell [10]
  Entire telomere length (nt): 4600 nt
